According to US20230203031A1, “COMPOUNDS USEFUL FOR INHIBITING CDK7” (Eli Lilly and Company, priority 2020, published 2023):
Like-named read-outs stand apart in the source and are kept apart here.

Assays:
CDK9/cyclinT1 = CDK9/cyclinT1 (Homo sapiens, UniProt P50750); assay: Assay for inhibition of CDK9/CyclinT1 kinase activity (radiolabel filter binding); settings: IC50 for CDK9 (3 hours preincubation), 100 µM ATP
Description: The purpose of these assays is to measure the ability of the compounds described herein to inhibit CDK7/CyclinH/Mat1 complex kinase activity. […] The IC50 determination for CDK7 and CDK9 are determined as follows.
The IC50 activity of the compounds described herein is determined using radiolabel filter binding (FB) assays using the purified human recombinant enzyme in the presence of ATP and peptide substrate. The ATP concentrations chosen are at or near the enzyme Km for ATP. Reactions are carried out in 96 well polystyrene plates in a final volume of 25 µL per well. 5 µL of test compound in 20% DMSO, 10 µL of substrate solution (ATP//[^33P]ATP and CDK7/9 tide) and 10 µL of enzyme solution are mixed. […] The enzyme solution is prepared for a final concentration of 7.5 nM CDK9/cyclinTl enzyme [Proqinase 0371-0345-1 (Lot 004)] diluted in kinase buffer. Test compounds are serially diluted 1:3 in 20% DMSO to create a 10 point curve at a starting concentration of 20 µM. 20% DMSO buffer alone without test compound is employed as high control (full activity in the absence of any inhibitor), 500 mM EDTA is used to determine the level of background in the absence of enzyme activity (low control). After mixing 5 µL of compounds with 10 µL of enzyme solution, the plate is incubated for 0 or 180 minutes at 22° C. After that time, the reaction is initiated by the addition of 10 µL substrate solution and incubated for 60 minutes at 22° C. The reaction is terminated by the addition of 80 µL of cold 10% orthophosphoric solution. Filter plates (opaque, non-sterile filter plates) are prewashed with 10 µL of 10% orthophosphoric solution per well. 100 µL of the mixture are transferred to a phosphocellulose filter and incubate at room temperature for 45 minutes. Filter plates are washed with 200 µL 0.5 % orthophosphoric acid 3 times on a filter plate processor. 80 µL of MICROSCINT™ is added to each well and read on a scintillation counter after an hour. Data is processed through a [sequence]-[sequence]Ⓡ tool. Data is analyzed using a 4-parameter nonlinear logistic equation (four-parameter logistic concentration-response curve): Y = bot + [(top-bot)/1+(x/ IC50)Slope] where Y = % inhibition, X = concentration yielding y% inhibition, Bottom = minimum value of y attained by curve, Top = maximum value of y attained by curve and Slope = steepness of curve at IC50. %Inh = [(median Max- x/ median Max - median Min)] . 100 IC50: concentration of compound that reduces a given response (ligand binding, enzyme response) by 50%. IC50 relative: concentration giving half the compound’s maximum response.

CDK7/CyclinH/Mat1 = CDK7/CyclinH/Mat1 (Homo sapiens, UniProt P50613); assay: Biochemical assay for inhibition of CDK7/CyclinH/MAT1 (radiolabel filter binding); settings: 100 µM ATP
Description: The purpose of these assays is to measure the ability of the compounds described herein to inhibit CDK7/CyclinH/Mat1 complex kinase activity. […] All ligands, solvents, and reagents employed in the following assays are readily available from commercial sources, or can be readily synthesized by one skilled in the art. The IC50 determination for CDK7 and CDK9 are determined as follows.
The IC50 activity of the compounds described herein is determined using radiolabel filter binding (FB) assays using the purified human recombinant enzyme in the presence of ATP//[^33P]ATP and peptide substrate. The ATP concentrations chosen are at or near the enzyme Km for ATP.
Reactions are carried out in 96 well polystyrene plates in a final volume of 25 µL per well. 5 µL of test compound in 20% DMSO, 10 µL of substrate solution (ATP/33PATP and CDK7/9 tide), and 10 µL of enzyme solution are mixed. […] The enzyme solution is prepared for a final concentration of 1 nM CDK7/CyclinH/Mat1 enzyme [Proqinase 0366-0360-4 Lot 002)] diluted in kinase buffer. Test compounds are serially diluted 1:3 in 20% DMSO to create a 10 point curve at a starting concentration of 20 µM. 20% DMSO buffer alone without test compound is employed as high control (full activity in the absence of any inhibitor), 500 mM EDTA is used to determine the level of background in the absence of enzyme activity (low control). After mixing 5 µL of compounds with 10 µL of enzyme solution, the plate is incubated for 0 or 180 minutes at 22° C. After that time, the reaction is initiated by the addition of 10 µL substrate solution and incubated for 50 minutes at 22° C. The reaction is terminated by the addition of 80 µL of cold 10% orthophosphoric solution. The Filter Plates (opaque, non-sterile filter plates) are prewashed with 10 µL of 10% orthophosphoric solution to each well. 100 µL of the mixture are transferred to a phosphocellulose filter and incubated at room temperature for 45 minutes. Filter plates are washed with 200 µL 0.5 % orthophosphoric acid 3 times on a filter plate processor. Incorporation of 33Pi (counting of “cpm”) is determined by adding 80 µL of MICROSCINT™ to each well and read on a counter after an hour. Data is processed through a [sequence] [sequence]Ⓡ tool. Data are analyzed using a 4-parameter nonlinear logistic equation (four-parameter logistic concentration-response curve): Y = bot + [(top-bot)/1+(x/ IC50)slope] where Y = % inhibition, X = concentration yielding y% inhibition, Bottom = minimum value of y attained by curve, Top = maximum value of y attained by curve and Slope = steepness of curve at IC50. %Inh = [(median Max- x/ median Max - median Min)] . 100 IC50: concentration of compound that reduces a given response (ligand binding, enzyme response) by 50%.

[1] = test system: phosphoCTD (S2) in HCT116 cells; assay: Phospho-carboxyl terminal domain (Ser2) p-CTD (S2) cell based Acumen assay; settings: read-out: relative IC50 for phosphoCTD (S2)
Description: HCT116 cells (ATCC CCL-247) are cultured in McCoy’s 5 Å Medium Modified media supplemented with 10% FBS, 1% NaPyr, and 1% Pen/Strep and plated (prior to becoming 70% confluent) in 96-well flat-bottom plates at a density of 5,000 cells per well in 100 µL volume. The cells are then incubated overnight in a cell culture incubator (5% CO2, 95% Relative Humidity (RH) and 37° C.) and allowed to attach to the plate. The following morning the cells are dosed with compounds. Compound inhibitors are first solubilized at 60 µM in culture medium containing 0.6% DMSO. Subsequently compound serial dilutions (1:3) are prepared over a 60 µM to 0.003 µM range. Cells are dosed with the addition of 50 µL from serial dilution plate to assay plate containing cells attached with 100 µL of media producing a final DMSO concentration of 0.2% with a final compound concentration dose range between 20 and 0.001 µM. For max point media containing 0.2% of DMSO is used and for min point, a reference compound diluted at 0.83 µM final concentration in the growth media containing 0.2% DMSO is used. After dosing with compounds, the cell plates are incubated at 37° C. and 5% CO2 for 4 hours. The growth media is removed carefully and the cells are fixed by adding 100 µL of 4% para-formaldehyde for 30 minutes at RT. Cells are washed once with PBS and incubated with 100 µL of cold MeOH for 15 minutes at RT for cell permeation. Cells are washed twice with PBS (100 µL/each) and blocked with 100 µL/well of 1% BSA/PBS for 30 minutes at RT. 50 µL of 1:1000 primary antibody (Anti-phospho CTD Ser2 Abcam, cat# ab5095-100) dilution in 1% BSA/PBS are added per well, the plates are sealed and incubated overnight at 4° C.
The following day cells are washed three times with PBS (100 µL/well) and incubated with 50 µL/well of secondary antibody (1:2000 dilution, Goat anti-rabbit IgM ALEXA FLUOR™ 488) in PBS for 1 hour at RT. After washing 3X with PBS (100 µL/well), 100 µL of 50 µg/mL RNAase and 1:1000 propidium iodide dilution in PBS are added per well. Plates are sealed and incubated 1 hour at RT on the bench (preserved from light). Plates are analyzed on Acumen on FL2 (mean intensity) and FL3 (total intensity). Fluorescence plates are scanned with ACUMEN EXPLORER™ [Laser-scanning fluorescence microplate cytometer manufactured by TTP LABTECH LTD] to measure anti-phospho-carboxyl terminal domain at Serine 2 (pCTD). Image analysis is based on cellular fluorescent signals for identifying positive cells. pCTD (S2) positive cells are identified by mean intensity at 500-530 above the threshold. Total intensity at 575-640 from propidium iodide/DNA is used to identify individual cells. Assay output is % pCTD positive cells.
The IC50 is determined by curve fitting to a four parameter logistic for each output using GENE DATA™.

[2] = test system: pCTD Ser5 in HCT116 cells; assay: Phospho-carboxyl terminal domain (Ser5) p-CTD (S5) cell based Acumen assay; settings: read-out: Relative IC50 for pCTD Ser5
Description: HCT116 cells (ATCC CCL-247) are cultured in McCoy’s 5A Medium Modified media supplemented with 10% FBS, 1% NaPyr, and 1% Pen/Strep and plated (prior to becoming 70% confluent) in 96-well flat-bottom plates at a density of 5,000 cells per well in 100 µL volume. The cells are incubated overnight in a cell culture incubator (5% CO2, 95% Relative Humidity (RH), and 37° C.) and allowed to attach to the plate. The following morning, the cells are dosed with compounds. Compound inhibitors are solubilized at 60 µM in culture medium containing 0.6% DMSO. Subsequently compound serial dilutions (1:3) are prepared over a 60 µM to 0.003 µM range. Cells are dosed with the addition of 50 µL from serial dilution plate to assay plate containing cell attached with 100 µL of media producing a final DMSO concentration of 0.2% with a final compound concentration dose range between 20 and 0.001 µM. For max point media containing 0.2% of DMSO is used and for min point, a reference compound diluted at 0.83 µM final concentration in the growth media containing 0.2% DMSO is used. After dosing with compounds, the cell plates are incubated at 37° C. and 5% CO2 for 4 hours. Growth media is removed carefully and the cells are fixed by adding 100 µL of 4% para-formaldehyde for 30 minutes at RT. Cell are washed once with PBS and incubated with 100 µL of cold MeOH for 15 minutes at RT for cell permeation. Again cells are washed twice with PBS (100 µL/each) and blocked with 100 µL/well of 1% BSA/PBS for 30 min at RT. 50 µL of 1:1000 primary antibody (Anti-phosphoCTD Ser5 Bethyl Laboratories cat# A300-655A) dilution in 1% BSA/PBS are added per well, the plates are sealed and incubated overnight at 4° C.
The following day cells are washed three times with PBS (100 µL/well) and incubated with 50 µL/well of secondary antibody (1:2000 dilution, Goat anti-rabbit IgM ALEXA FLUOR™ 488) in PBS for 1 hourr at room temperature. After washing 3× with PBS (100 µL/well), 100 µL, of 50 µg/mL RNAase (Sigma) and 1:1000 propidium iodide dilution in PBS are added per well. Plates are sealed and incubated for 1 hour at RT on the bench (preserved from light). Plates are analyzed on Acumen on FL2 (mean intensity), and FL3 (total intensity). Fluorescence plates are scanned with ACUMEN EXPLORER™ [Laser-scanning fluorescence microplate cytometer manufactured by TTP LABTECH LTD] to measure anti-phospho-carboxyl terminal domain at Serine 5 (pCTD). Image analysis is based on cellular fluorescent signals for identifying positive cells. pCTD (S5) positive cells are identified by mean intensity at 500-530 above the threshold. Total intensity at 575-640 from propidium iodide/DNA is used to identify individual cells. Assay output is % pCTD positive cells. The IC50 is determined by curve fitting to a four parameter logistic for each output using GENE DATA™.

[3] = IC50 after 3 hours of preincubation of CDK7 enzyme, 3 hours preincubation
[4] = IC50 in CDK7 without preincubation, no preincubation of enzyme with compound

Sequence of CDK7/CyclinH/Mat1 (P50613 whole entry, the tested form may be a part): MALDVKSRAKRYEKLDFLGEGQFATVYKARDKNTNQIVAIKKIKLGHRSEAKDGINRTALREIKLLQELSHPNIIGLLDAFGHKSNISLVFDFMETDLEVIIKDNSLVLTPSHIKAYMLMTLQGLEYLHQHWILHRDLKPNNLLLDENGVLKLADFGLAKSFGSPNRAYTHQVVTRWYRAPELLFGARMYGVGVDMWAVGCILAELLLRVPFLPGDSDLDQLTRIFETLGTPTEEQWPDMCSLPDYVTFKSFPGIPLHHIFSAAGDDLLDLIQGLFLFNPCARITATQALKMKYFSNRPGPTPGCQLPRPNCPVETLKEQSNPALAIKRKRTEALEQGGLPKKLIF
Sequence of CDK7/CyclinH/Mat1 (P51946 whole entry partner, the tested form may be a part): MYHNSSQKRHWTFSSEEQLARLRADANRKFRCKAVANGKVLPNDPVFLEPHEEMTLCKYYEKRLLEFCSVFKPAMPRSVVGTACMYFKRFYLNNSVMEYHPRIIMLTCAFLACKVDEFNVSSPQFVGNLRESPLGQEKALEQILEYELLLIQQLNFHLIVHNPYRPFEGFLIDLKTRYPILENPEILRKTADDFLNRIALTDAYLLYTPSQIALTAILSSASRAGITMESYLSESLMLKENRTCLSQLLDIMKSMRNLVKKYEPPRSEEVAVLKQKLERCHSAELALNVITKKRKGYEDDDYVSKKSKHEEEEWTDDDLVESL
Sequence of CDK7/CyclinH/Mat1 (P51948 whole entry partner, the tested form may be a part): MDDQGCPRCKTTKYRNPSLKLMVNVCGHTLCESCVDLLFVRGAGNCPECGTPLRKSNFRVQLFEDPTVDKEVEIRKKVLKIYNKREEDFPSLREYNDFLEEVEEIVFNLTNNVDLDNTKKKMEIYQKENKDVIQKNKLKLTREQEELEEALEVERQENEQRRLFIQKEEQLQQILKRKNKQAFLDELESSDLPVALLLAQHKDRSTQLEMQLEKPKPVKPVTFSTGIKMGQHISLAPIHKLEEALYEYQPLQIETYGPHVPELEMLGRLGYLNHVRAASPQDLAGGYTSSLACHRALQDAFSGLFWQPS
Sequence of CDK9/cyclinT1 (P50750 whole entry): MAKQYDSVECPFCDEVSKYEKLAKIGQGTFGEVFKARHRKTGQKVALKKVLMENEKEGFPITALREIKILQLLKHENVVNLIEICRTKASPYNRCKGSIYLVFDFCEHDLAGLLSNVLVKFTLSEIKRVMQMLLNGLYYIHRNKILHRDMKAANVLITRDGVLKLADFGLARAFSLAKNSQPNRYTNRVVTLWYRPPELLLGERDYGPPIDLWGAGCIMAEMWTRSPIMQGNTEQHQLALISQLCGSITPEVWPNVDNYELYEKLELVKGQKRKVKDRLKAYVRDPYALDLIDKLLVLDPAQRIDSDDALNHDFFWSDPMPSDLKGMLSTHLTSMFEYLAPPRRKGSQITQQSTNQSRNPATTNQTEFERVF
Sequence of CDK9/cyclinT1 (O60563 whole entry partner): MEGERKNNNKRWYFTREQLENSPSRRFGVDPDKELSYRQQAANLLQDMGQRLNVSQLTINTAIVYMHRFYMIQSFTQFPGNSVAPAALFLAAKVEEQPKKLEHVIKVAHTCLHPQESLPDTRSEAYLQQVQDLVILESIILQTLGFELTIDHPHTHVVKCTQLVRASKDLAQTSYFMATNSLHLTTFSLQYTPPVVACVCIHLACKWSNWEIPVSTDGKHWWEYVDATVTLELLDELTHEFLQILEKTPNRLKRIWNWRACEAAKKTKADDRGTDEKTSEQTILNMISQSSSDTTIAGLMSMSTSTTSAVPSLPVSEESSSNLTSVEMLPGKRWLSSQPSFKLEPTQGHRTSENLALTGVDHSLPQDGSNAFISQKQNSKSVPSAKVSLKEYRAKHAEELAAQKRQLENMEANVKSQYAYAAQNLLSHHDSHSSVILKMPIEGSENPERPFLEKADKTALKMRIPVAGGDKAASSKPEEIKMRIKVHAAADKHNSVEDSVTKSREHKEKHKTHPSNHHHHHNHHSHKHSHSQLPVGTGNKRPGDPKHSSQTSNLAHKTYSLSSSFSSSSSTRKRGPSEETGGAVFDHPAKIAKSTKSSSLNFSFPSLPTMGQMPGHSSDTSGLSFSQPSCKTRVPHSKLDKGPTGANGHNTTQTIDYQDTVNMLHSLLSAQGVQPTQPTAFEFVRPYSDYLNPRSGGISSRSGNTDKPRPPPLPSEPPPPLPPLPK

Compound | IC50 (CDK9/cyclinT1) | IC50 (CDK7/CyclinH/Mat1; [3]) | IC50 (CDK7/CyclinH/Mat1; [4]) | IC50 ([1]; 4 hours) | IC50 ([2]; 4 hours) | IC50 ([1]; Homo sapiens, HCT-116, 4 h) | IC50 ([2]; Homo sapiens, HCT-116, 4 h)
C=CC(=O)N1CCO[C@H](CN2CCC(Nc3cc(C(C)F)cn4c(C(C)C)cnc34)CC2)C1 (single isomer, unassigned) [Example 2] | 3180 nM | 26.6 nM | 256 nM | 6360 nM | 162 nM |  | 
[2H]CC([2H])(C)c1cnc2c(NC3CCN(C[C@@H]4CN(C(=O)C=C)CCO4)CC3)cc(C(F)(F)F)cn12 (mixture of isomers) [Example 7, 1-[(2R)-2-[[4-[[3-[rac-1,2-dideuterio-1-methyl-ethyl]-6-(trifluoromethyl)imidazo[1,2-a]pyridin-8-yl]amino]-1-piperidyl]methyl]morpholin-4-yl]prop-2-en-1-one] | 2030 nM | 6.25 nM | 84.5 nM |  |  | 2920 nM | 71.7 nM
C=CC(=O)N1CCO[C@H](CN2CCC(Nc3cc(C(C)O)cn4c(C(C)C)cnc34)CC2)C1 (single isomer, unassigned) [Example 5] | 7130 nM | 41.5 nM | 367 nM | 7790 nM | 118 nM |  | 
C=CC(=O)N1CCO[C@H](CN2CCC(Nc3cc(C(F)(F)F)cn4c(C(C)C)cnc34)CC2)C1 [Example 8, 1-[(2R)-2-[[4-[[3-isopropyl-6-(trifluoromethyl)imidazo[1,2-a]pyridin-8-yl]amino]-1-piperidyl]methyl]morpholin-4-yl]prop-2-en-1-one] | 2140 nM | 5.74 nM | 65.6 nM |  |  | 2590 nM | 26.2 nM
[2H]C([2H])=C([2H])C(=O)N1CCO[C@H](CN2CCC(Nc3cc(C(F)(F)F)cn4c(C(C)C)cnc34)CC2)C1 [Example 6, 2,3,3-trideuterio-1-[(2R)-2-[[4-[[3-isopropyl-6-(trifluoromethyl)imidazo[1,2-a]pyridin-8-yl]amino]-1-piperidyl]methyl]morpholin-4-yl]prop-2-en-1-one] | 1610 nM | 3.96 nM | 67.4 nM |  |  | 3790 nM | 15.9 nM
C=CC(=O)N1CCO[C@H](CN2CCC(Nc3cc(C(C)F)cn4c(C(C)C)cnc34)CC2)C1 (single isomer, unassigned) [Example 1] | 1770 nM | 14.3 nM | 123 nM |  |  | 5730 nM | 161 nM
C=CC(=O)N1CCO[C@H](CN2CCC(Nc3cc(C(C)O)cn4c(C(C)C)cnc34)CC2)C1 (single isomer, unassigned) [Example 4] | 8050 nM | 14.3 nM | 155 nM | 3710 nM | 55.1 nM |  | 
